Source: patent US11389423B2, “Pharmaceutical composition, excipient for the composition and use of the composition” (priority 2018, dated 2022)

Experiments:
male rabbits = assay: Arterial blood gas analysis; assay type: in vivo, New Zealand rabbits; settings: male rabbits, 17, 51 and 170 mg/kg by gavage
Description: Male New Zealand rabbits (n=6 per group) were used for pharmacological safety tests. All tests were performed orally (route recommended for humans) and the investigated parameters were determined after a single administration of CBD-SINT. CBD-SINT doses were determined by allometric extrapolation from the average dose used in human patients (25 mg/kg).
The dose of 51 mg/kg was used as the intermediate dose, stipulating a higher and a lower dose. Three dose ranges were used according to the Guide for Conducting Non-Clinical Toxicology and Pharmacological Safety Studies Necessary for Drug Development (ANVISA, 2013; Version 1.2). Thus, the doses used were 17, 51 and 170 mg/kg of CBD-SINT.
After 6-h fasting, three doses of CBD-SINT (17, 51 and 170 mg/kg) were administered to different groups of male rabbits by gavage. […] The respiratory rate was determined using a Kofranyi-Michaelis respirometer (Murphy, 2002). […] All parameters below were determined on a Cobas b 221 multiparametric blood gas analyzer (Roche Diagnostics, Rotkreuz, Switzerland): pH, PCO2 (mm Hg), PO2 (mm Hg), SO2(%), Htc (%), tHb (g/dL), Na+ (mmol/L), K+ (mmol/L), Ca2+ (mmol/L), Cl− (mmol/L), glucose (mg/dL), lactate (mmol/L), O2Hb (%), HHb (%), P50 (mm Hg), H+ (nmol/L), BE (nmol/L), BEecf (nmol/L), BB (mmol/L), cHCO3 (mmol/L), ctCO2 (B) (mmol/L), ctCO2 (P) (mmol/L) and ctO2 (% by volume).

[1] = system: rats with MPTP microinfusion into the substantia nigra; assay: Open field test (motor activity), MPTP model; assay type: in vivo; settings: oral
Description: The number of animals per group was ten (10) subjects. This number was estimated based on internationally recognized and scientifically validated protocols. The doses of the CBD-SINT formulation were determined by allometric extrapolation from the average dose used in human patients (600 mg/day, which in a 70 kg individual represents approximately 9 mg/kg), obtaining an average dose of ˜36 mg/kg CBD in rats.
For the calculation of the three doses, the intermediate dose was used as a reference, and then a higher and a lower dose was stipulated on a logarithmic scale. To stipulate the lowest dose, ⅓ of the median dose was used. For the higher dose, a safety factor of 10 times the lower dose was used. Thus, the doses of CBD-SINT used in this trial were: 12, 36 and 120 mg/kg. […]
CBD-SINT and placebo were administered orally (gavage) for 18 days prior to the administration of the neurotoxin by stereotactic surgery, and for another 10 days after surgery. After the administration of the neurotoxin, the behavioral (locomotor activity) and biochemical (brain dopamine dosage) parameters were evaluated after 24 hours and after 10 days. […]
The animals were placed on the central circle of the open field and its behavior evaluated for 5 minutes. […] Each animal was assessed individually, and the device was cleaned between animals with 5% alcohol solution (FIG. 15).

C=C(C)[C@@H]1CCC(C)=C[C@H]1c1c(O)cc(CCCCC)cc1O [CBD-SINT, Cannabidiol]
arterial blood gases, electrolytes and metabolites (pH, PCO2, PO2, SO2, Htc, tHb, Na+, K+, Ca2+, Cl-, glucose, lactate, O2Hb, HHb, P50, H+, BE, BEecf, BB, cHCO3, ctCO2, ctO2) vs placebo (male rabbits): none of the CBD-SINT doses changed | latency time and frequency of standing compared to CBD-FITO in the same concentration [1]: a lower concentration had a more effective result
